Tests used:
Assay in all cases: Kinobeads competition binding with immobilized CZC25342, mixed HeLa placenta lysates (Example 5, Table 7)
[1] = biological target: T1, kinases from mixed HeLa placenta lysates (Homo sapiens, UniProt O14965); conditions: kinase AurA; 10 μM free compound; HeLa Placenta lysate mix
T1 construct: capturing and identification of kinases from mixed HeLa placenta lysates; endogenous in cells; host or cells: mixed lysate of HeLa cells and placenta tissue
Protocol: (§1) To one aliquot of cell lysate 10 μM of the free compound (FIG. 2, CZC25342) was added and allowed to bind to proteins in the lysate. Then the affinity matrix with the immobilized compound was added to capture proteins that were not interacting with the previously added free compound. Beads were separated from the lysate and bead bound proteins were eluted in SDS sample buffer and subsequently separated by SDS-Polyacrylamide gel electrophoresis (FIG. 11). Suitable gel bands were cut out and subjected to in-gel proteolytic digestion with trypsin. The second lysate aliquot was processed identically, however no free compound was added (DMSO solvent control). Peptides originating from samples 1 and 2 were labeled with iTRAQ reagents (iTRAQ 114 and iTRAQ 117) and the combined samples were analyzed with a nano-flow liquid chromatography system coupled online to a tandem mass spectrometer (LC-MS/MS) experiment followed by iTRAQ reporter ion quantification in the MS/MS spectra as described in Example 2. The identified kinases are shown in Table 7 including the percent competition values for the sample to which 10 μM free compound had been added. In total of 83 different kinases were identified and competed by different degrees.

[2] = biological target: T2, kinases from mixed HeLa placenta lysates (Homo sapiens, UniProt O14976); conditions: kinase GAK; 10 μM free compound; HeLa Placenta lysate mix
T2 construct: capturing and identification of kinases from mixed HeLa placenta lysates; endogenous in cells; host or cells: mixed lysate of HeLa cells and placenta tissue
Protocol: as §1

[3] = biological target: T3, kinases from mixed HeLa placenta lysates (Homo sapiens, UniProt O75716); conditions: kinase MPSK1; 10 μM free compound; HeLa Placenta lysate mix
T3 construct: capturing and identification of kinases from mixed HeLa placenta lysates; endogenous in cells; host or cells: mixed lysate of HeLa cells and placenta tissue
T3 sequence (O75716 whole entry): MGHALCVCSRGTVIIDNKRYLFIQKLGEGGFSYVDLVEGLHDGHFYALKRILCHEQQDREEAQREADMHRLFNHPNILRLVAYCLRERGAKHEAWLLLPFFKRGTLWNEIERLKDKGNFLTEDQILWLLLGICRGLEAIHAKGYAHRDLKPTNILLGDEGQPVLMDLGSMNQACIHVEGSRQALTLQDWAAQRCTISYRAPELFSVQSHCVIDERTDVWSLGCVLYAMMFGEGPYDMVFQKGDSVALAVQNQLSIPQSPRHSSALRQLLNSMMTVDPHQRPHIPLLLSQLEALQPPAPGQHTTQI
Protocol: as §1

[4] = biological target: T4, kinases from mixed HeLa placenta lysates (Homo sapiens, UniProt P07947); conditions: kinase YES; 10 μM free compound; HeLa Placenta lysate mix
T4 construct: capturing and identification of kinases from mixed HeLa placenta lysates; endogenous in cells; host or cells: mixed lysate of HeLa cells and placenta tissue
Protocol: as §1

[5] = biological target: T5, kinases from mixed HeLa placenta lysates (Homo sapiens, UniProt P12931); conditions: kinase SRC; 10 μM free compound; HeLa Placenta lysate mix
T5 construct: capturing and identification of kinases from mixed HeLa placenta lysates; endogenous in cells; host or cells: mixed lysate of HeLa cells and placenta tissue
Protocol: as §1

[6] = biological target: T6, kinases from mixed HeLa placenta lysates (Homo sapiens, UniProt P23458); conditions: kinase JAK1; 10 μM free compound; HeLa Placenta lysate mix
T6 construct: capturing and identification of kinases from mixed HeLa placenta lysates; endogenous in cells; host or cells: mixed lysate of HeLa cells and placenta tissue
Protocol: as §1

[7] = biological target: T7, kinases from mixed HeLa placenta lysates (Homo sapiens, UniProt P29597); conditions: kinase TYK2; 10 μM free compound; HeLa Placenta lysate mix
T7 construct: capturing and identification of kinases from mixed HeLa placenta lysates; endogenous in cells; host or cells: mixed lysate of HeLa cells and placenta tissue
Protocol: as §1

[8] = biological target: T8, kinases from mixed HeLa placenta lysates (Homo sapiens, UniProt P42680); conditions: kinase TEC; 10 μM free compound; HeLa Placenta lysate mix
T8 construct: capturing and identification of kinases from mixed HeLa placenta lysates; endogenous in cells; host or cells: mixed lysate of HeLa cells and placenta tissue
Protocol: as §1

[9] = biological target: T9, kinases from mixed HeLa placenta lysates (Homo sapiens, UniProt P45983); conditions: kinase JNK1; 10 μM free compound; HeLa Placenta lysate mix
T9 construct: capturing and identification of kinases from mixed HeLa placenta lysates; endogenous in cells; host or cells: mixed lysate of HeLa cells and placenta tissue
Protocol: as §1

[10] = biological target: T10, kinases from mixed HeLa placenta lysates (Homo sapiens, UniProt P48426); conditions: kinase PIP5K2A; 10 μM free compound; HeLa Placenta lysate mix
T10 construct: capturing and identification of kinases from mixed HeLa placenta lysates; endogenous in cells; host or cells: mixed lysate of HeLa cells and placenta tissue
Protocol: as §1

[11] = biological target: T11, kinases from mixed HeLa placenta lysates (Homo sapiens, UniProt P49840); conditions: kinase GSK3A; 10 μM free compound; HeLa Placenta lysate mix
T11 construct: capturing and identification of kinases from mixed HeLa placenta lysates; endogenous in cells; host or cells: mixed lysate of HeLa cells and placenta tissue
T11 sequence (P49840 whole entry): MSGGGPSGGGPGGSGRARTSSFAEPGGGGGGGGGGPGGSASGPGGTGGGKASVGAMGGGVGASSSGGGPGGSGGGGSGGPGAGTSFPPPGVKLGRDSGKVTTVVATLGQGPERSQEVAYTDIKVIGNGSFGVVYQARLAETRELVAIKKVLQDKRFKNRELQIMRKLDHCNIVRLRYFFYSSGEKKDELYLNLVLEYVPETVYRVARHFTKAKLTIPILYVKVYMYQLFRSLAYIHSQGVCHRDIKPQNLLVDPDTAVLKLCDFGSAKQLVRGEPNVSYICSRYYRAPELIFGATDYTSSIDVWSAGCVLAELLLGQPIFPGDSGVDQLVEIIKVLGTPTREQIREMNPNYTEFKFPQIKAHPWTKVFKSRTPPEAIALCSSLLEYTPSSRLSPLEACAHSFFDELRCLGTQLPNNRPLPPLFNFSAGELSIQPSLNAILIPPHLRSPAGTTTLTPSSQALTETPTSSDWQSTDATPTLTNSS
Protocol: as §1

[12] = biological target: T12, kinases from mixed HeLa placenta lysates (Homo sapiens, UniProt P51812); conditions: kinase RSK2; 10 μM free compound; HeLa Placenta lysate mix
T12 construct: capturing and identification of kinases from mixed HeLa placenta lysates; endogenous in cells; host or cells: mixed lysate of HeLa cells and placenta tissue
Protocol: as §1

[13] = biological target: T13, kinases from mixed HeLa placenta lysates (Homo sapiens, UniProt P54646); conditions: kinase AMPKa2; 10 μM free compound; HeLa Placenta lysate mix
T13 construct: capturing and identification of kinases from mixed HeLa placenta lysates; endogenous in cells; host or cells: mixed lysate of HeLa cells and placenta tissue
Protocol: as §1

[14] = biological target: T14, kinases from mixed HeLa placenta lysates (Homo sapiens, UniProt Q13555); conditions: kinase CaMK2g; 10 μM free compound; HeLa Placenta lysate mix
T14 construct: capturing and identification of kinases from mixed HeLa placenta lysates; endogenous in cells; host or cells: mixed lysate of HeLa cells and placenta tissue
T14 sequence (Q13555 whole entry): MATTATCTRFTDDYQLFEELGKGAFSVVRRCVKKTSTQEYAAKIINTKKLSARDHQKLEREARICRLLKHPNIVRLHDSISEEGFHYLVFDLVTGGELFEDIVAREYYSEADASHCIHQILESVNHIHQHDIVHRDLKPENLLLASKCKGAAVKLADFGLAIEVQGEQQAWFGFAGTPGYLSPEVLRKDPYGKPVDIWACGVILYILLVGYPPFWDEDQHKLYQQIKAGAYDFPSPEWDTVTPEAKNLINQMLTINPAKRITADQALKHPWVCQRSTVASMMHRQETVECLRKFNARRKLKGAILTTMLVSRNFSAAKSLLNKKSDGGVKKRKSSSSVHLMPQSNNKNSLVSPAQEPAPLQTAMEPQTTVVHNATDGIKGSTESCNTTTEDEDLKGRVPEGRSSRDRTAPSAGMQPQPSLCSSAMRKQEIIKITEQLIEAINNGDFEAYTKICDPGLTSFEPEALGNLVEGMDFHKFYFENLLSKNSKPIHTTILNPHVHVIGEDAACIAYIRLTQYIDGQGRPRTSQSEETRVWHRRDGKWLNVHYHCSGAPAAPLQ
Protocol: as §1

[15] = biological target: T15, kinases from mixed HeLa placenta lysates (Homo sapiens, UniProt Q13976); conditions: kinase PKG1; 10 μM free compound; HeLa Placenta lysate mix
T15 construct: capturing and identification of kinases from mixed HeLa placenta lysates; endogenous in cells; host or cells: mixed lysate of HeLa cells and placenta tissue
Protocol: as §1

[16] = biological target: T16, kinases from mixed HeLa placenta lysates (Homo sapiens, UniProt Q16584); conditions: kinase MLK3; 10 μM free compound; HeLa Placenta lysate mix
T16 construct: capturing and identification of kinases from mixed HeLa placenta lysates; endogenous in cells; host or cells: mixed lysate of HeLa cells and placenta tissue
Protocol: as §1

[17] = biological target: T17, kinases from mixed HeLa placenta lysates (Homo sapiens, UniProt Q5S007); conditions: kinase LRRK2; 10 μM free compound; HeLa Placenta lysate mix
T17 construct: capturing and identification of kinases from mixed HeLa placenta lysates; endogenous in cells; host or cells: mixed lysate of HeLa cells and placenta tissue
T17 sequence (Q5S007 whole entry): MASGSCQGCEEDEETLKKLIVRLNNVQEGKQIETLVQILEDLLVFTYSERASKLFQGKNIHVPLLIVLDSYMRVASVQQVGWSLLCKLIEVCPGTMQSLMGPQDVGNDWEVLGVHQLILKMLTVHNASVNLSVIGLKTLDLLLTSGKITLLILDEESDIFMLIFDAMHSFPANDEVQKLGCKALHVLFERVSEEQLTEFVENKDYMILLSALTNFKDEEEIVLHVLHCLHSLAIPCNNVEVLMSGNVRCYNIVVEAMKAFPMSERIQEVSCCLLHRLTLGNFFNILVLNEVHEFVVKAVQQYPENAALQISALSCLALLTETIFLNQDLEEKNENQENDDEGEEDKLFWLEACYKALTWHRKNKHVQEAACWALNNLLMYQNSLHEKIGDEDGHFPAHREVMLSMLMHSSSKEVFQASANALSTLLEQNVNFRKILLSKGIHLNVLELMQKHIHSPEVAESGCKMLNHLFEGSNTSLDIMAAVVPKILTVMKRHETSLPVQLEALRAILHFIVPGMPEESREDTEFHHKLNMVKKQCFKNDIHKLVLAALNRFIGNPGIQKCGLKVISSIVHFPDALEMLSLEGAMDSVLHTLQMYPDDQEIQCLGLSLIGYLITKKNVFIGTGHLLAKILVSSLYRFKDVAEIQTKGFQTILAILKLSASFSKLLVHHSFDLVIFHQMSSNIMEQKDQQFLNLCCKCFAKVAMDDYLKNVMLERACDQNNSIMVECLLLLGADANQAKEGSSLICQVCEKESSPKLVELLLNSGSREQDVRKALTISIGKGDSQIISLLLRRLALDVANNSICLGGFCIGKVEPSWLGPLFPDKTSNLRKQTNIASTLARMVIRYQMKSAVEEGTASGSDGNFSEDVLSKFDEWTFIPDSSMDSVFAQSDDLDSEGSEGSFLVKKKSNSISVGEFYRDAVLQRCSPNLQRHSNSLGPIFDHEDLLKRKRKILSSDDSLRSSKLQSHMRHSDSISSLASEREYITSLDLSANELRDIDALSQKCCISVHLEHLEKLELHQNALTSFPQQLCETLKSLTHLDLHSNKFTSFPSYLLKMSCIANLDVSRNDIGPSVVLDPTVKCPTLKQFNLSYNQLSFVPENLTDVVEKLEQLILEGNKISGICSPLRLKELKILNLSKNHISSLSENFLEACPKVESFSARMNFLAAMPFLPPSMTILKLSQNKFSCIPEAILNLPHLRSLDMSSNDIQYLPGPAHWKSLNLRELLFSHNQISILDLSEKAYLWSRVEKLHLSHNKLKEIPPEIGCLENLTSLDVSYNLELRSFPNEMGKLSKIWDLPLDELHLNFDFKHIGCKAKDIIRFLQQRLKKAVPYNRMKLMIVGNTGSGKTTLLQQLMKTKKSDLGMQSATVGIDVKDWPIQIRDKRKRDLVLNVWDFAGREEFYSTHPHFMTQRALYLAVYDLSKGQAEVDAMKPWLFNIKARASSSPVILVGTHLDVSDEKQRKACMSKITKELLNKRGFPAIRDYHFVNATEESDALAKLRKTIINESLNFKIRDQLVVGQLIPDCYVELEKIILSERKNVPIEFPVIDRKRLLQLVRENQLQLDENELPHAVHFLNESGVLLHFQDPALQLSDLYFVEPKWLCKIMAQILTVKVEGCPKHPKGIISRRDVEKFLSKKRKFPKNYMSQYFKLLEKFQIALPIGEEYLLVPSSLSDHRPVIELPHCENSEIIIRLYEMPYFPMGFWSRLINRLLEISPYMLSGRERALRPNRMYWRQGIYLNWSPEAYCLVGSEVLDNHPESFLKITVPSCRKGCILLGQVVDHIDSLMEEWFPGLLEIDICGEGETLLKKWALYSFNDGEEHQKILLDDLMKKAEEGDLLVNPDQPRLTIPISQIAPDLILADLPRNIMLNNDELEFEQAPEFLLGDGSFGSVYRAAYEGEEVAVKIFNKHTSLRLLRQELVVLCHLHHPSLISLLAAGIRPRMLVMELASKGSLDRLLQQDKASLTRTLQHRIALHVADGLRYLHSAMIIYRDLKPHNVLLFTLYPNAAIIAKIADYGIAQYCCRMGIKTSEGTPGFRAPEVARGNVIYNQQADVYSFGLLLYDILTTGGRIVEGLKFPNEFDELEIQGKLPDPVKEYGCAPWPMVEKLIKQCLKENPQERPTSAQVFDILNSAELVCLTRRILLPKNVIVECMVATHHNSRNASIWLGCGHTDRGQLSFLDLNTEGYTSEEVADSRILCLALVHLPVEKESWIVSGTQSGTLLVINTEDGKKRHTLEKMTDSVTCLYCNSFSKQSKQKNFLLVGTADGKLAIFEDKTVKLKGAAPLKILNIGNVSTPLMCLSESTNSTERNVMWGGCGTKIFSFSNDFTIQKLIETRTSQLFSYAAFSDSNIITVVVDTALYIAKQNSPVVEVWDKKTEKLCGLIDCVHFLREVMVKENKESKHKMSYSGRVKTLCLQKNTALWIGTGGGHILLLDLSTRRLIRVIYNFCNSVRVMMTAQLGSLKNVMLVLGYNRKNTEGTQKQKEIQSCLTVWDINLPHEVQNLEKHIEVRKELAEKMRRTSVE
Protocol: as §1

[18] = biological target: T18, kinases from mixed HeLa placenta lysates (Homo sapiens, UniProt Q7KZI7); conditions: kinase MARK2; 10 μM free compound; HeLa Placenta lysate mix
T18 construct: capturing and identification of kinases from mixed HeLa placenta lysates; endogenous in cells; host or cells: mixed lysate of HeLa cells and placenta tissue
Protocol: as §1

[19] = biological target: T19, kinases from mixed HeLa placenta lysates (Homo sapiens, UniProt Q96C45); conditions: kinase ULK4; 10 μM free compound; HeLa Placenta lysate mix
T19 construct: capturing and identification of kinases from mixed HeLa placenta lysates; endogenous in cells; host or cells: mixed lysate of HeLa cells and placenta tissue
Protocol: as §1

[20] = biological target: T20, kinases from mixed HeLa placenta lysates (Homo sapiens, UniProt Q99683); conditions: kinase MAP3K5; 10 μM free compound; HeLa Placenta lysate mix
T20 construct: capturing and identification of kinases from mixed HeLa placenta lysates; endogenous in cells; host or cells: mixed lysate of HeLa cells and placenta tissue
Protocol: as §1

[21] = biological target: T21, kinases from mixed HeLa placenta lysates (Homo sapiens, UniProt Q9H2G2); conditions: kinase SLK; 10 μM free compound; HeLa Placenta lysate mix
T21 construct: capturing and identification of kinases from mixed HeLa placenta lysates; endogenous in cells; host or cells: mixed lysate of HeLa cells and placenta tissue
T21 sequence (Q9H2G2 whole entry): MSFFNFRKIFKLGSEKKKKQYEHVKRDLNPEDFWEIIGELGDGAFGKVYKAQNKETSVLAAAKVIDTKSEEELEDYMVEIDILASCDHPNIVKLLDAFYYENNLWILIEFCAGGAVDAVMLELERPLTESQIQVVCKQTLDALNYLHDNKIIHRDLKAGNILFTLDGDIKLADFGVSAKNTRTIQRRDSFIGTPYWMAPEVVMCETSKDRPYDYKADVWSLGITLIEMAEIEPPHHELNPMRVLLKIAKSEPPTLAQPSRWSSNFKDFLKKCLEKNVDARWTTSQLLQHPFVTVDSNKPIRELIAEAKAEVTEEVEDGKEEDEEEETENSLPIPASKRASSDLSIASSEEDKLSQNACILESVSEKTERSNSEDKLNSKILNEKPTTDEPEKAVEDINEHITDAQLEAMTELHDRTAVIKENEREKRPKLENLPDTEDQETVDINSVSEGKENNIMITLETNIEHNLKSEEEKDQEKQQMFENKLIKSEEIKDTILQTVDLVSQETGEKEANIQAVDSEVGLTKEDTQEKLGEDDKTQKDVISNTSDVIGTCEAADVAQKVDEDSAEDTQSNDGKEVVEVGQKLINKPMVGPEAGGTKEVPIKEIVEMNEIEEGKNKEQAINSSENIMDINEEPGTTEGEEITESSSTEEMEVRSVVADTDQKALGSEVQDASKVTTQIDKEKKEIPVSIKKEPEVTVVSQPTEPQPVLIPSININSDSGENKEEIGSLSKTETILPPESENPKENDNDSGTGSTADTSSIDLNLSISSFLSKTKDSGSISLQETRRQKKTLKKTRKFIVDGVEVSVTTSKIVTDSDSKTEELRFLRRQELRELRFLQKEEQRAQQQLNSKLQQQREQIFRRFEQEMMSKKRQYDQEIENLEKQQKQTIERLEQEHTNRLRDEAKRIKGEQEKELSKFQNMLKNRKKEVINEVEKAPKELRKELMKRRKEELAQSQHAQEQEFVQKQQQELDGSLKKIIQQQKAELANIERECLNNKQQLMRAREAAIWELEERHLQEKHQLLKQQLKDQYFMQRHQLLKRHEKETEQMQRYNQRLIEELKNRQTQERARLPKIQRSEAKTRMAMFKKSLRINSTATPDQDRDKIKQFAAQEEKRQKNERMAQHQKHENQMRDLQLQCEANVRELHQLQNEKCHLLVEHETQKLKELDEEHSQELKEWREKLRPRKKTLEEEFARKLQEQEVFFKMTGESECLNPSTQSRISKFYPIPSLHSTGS
Protocol: as §1

[22] = biological target: T22, kinases from mixed HeLa placenta lysates (Homo sapiens, UniProt Q9NSY1); conditions: kinase BIKE; 10 μM free compound; HeLa Placenta lysate mix
T22 construct: capturing and identification of kinases from mixed HeLa placenta lysates; endogenous in cells; host or cells: mixed lysate of HeLa cells and placenta tissue
Protocol: as §1

[23] = biological target: T23, kinases from mixed HeLa placenta lysates (Homo sapiens, UniProt Q9Y616); conditions: kinase IRAK3; 10 μM free compound; HeLa Placenta lysate mix
T23 construct: capturing and identification of kinases from mixed HeLa placenta lysates; endogenous in cells; host or cells: mixed lysate of HeLa cells and placenta tissue
Protocol: as §1

[24] = biological target: T24, kinases from mixed HeLa placenta lysates (Homo sapiens, UniProt Q9Y6R4); conditions: kinase MAP3K4; 10 μM free compound; HeLa Placenta lysate mix
T24 construct: capturing and identification of kinases from mixed HeLa placenta lysates; endogenous in cells; host or cells: mixed lysate of HeLa cells and placenta tissue
Protocol: as §1

Competition % AurA [1]: 93.6% | Competition % GAK [2]: 95.9% | Competition % MPSK1 [3]: 92.1% | Competition % YES [4]: 91.7% | Competition % SRC [5]: 89.5% | Competition % JAK1 [6]: 96.7% | Competition % TYK2 [7]: 96.6% | Competition % TEC [8]: 89.3% | Competition % JNK1 [9]: 84.3% | Competition % PIP5K2A [10]: 98.7% | Competition % GSK3A [11]: 94.6% | Competition % RSK2 [12]: 95.6% | Competition % AMPKa2 [13]: 97.1% | Competition % CaMK2g [14]: 75.2% | Competition % PKG1 [15]: 79.3% | Competition % MLK3 [16]: 94.9% | Competition % LRRK2 [17]: 87.8% | Competition % MARK2 [18]: 93.4% | Competition % ULK4 [19]: 84.7% | Competition % MAP3K5 [20]: 94.1% | Competition % SLK [21]: 95.2% | Competition % BIKE [22]: 94.8% | Competition % IRAK3 [23]: 86.2% | Competition % MAP3K4 [24]: 92.2%
Structure (SMILES): CS(=O)(=O)Nc1ccccc1Nc1nc(Nc2cccc(OCCN)c2)ncc1F [CZC25342, N-(2-(2-(3-(2-aminoethoxy)phenylamino)-5-fluoropyrimidin-4-ylamino)phenyl)methanesulfonamide]
